Measured values taken from the supplement of paper PMC4649846.
Where “and” joins values, the source holds several entries; their conditions need not be identical. Equal values may be shown once.

Experiments:
MDA-MB-231 [1] = assay: drug sensitivity score (DSS); higher = more sensitive; extreme values may be limits of the assay; details: incubation time: 72 h
Method: (§1)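 MDA-MB-231 breast cancer cells were transfected with siBRCA1 or non-targeting siControl, then seeded 24 h later at 4000 cells/well in 384-well plates holding 198 drugs at 5 concentrations. Viability was read by CellTiter-Blue after 72 h at 37 °C. Dose-response curves were fitted in Dotmatics to give IC50 and a drug sensitivity score (DSS: area under the curve relative to the area between the 10% threshold and 100% inhibition, normalised by the log of the top response). The dose range is not stated. IC50 values of 8333.3 or 4166.7 nM mark no response (top dose), and 0.8333 nM is the lower limit.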

MDA-MB-231 [2] = details: incubation time: 72 h
Method: as §1

[3] = siRNA: siControl (non-targeting)

Structure (SMILES)	IC50 of cell viability (MDA-MB-231 [2]; siRNA: siBRCA1)	IC50 of cell viability (MDA-MB-231 [2]; [3])	drug sensitivity score (MDA-MB-231 [1]; siRNA: siBRCA1)	drug sensitivity score (MDA-MB-231 [1]; [3])
CC(=O)Nc1ccc(C(=O)Nc2ccccc2N)cc1 [CI-994]	> 4170 nM	865 nM	0	2.63
C#Cc1cccc(Nc2ncnc3cc(OC)c(OCCCCCCC(=O)NO)cc23)c1 [CUDC-101]	433 nM	321 nM	14.7	16.4
CC[C@@]1(O)C(=O)OCc2c1cc1n(c2=O)Cc2cc3ccccc3nc2-1 [Camptothecin]	45.6 nM	328 nM	16.9	10.9
CCCCCOC(=O)Nc1nc(=O)n([C@@H]2O[C@H](C)[C@@H](O)[C@H]2O)cc1F [Capecitabine]	> 4170 nM	> 4170 nM	0	0
O=C(O)C1(C(=O)O)CCC1.[NH2-].[NH2-].[Pt+2] [Carboplatin]	> 4170 nM	> 4170 nM	0	0
CC(C)C[C@H](NC(=O)[C@H](CCc1ccccc1)NC(=O)CN1CCOCC1)C(=O)N[C@@H](Cc1ccccc1)C(=O)N[C@@H](CC(C)C)C(=O)[C@@]1(C)CO1 [Carfilzomib]	4.01 nM	13.6 nM	39.3	33.7
O=NN(CCCl)C(=O)NCCCl [Carmustine]	> 4170 nM	> 4170 nM	0	0
O=C(O)CCCc1ccc(N(CCCl)CCCl)cc1 [Chlorambucil]	> 4170 nM	> 4170 nM	0.465	0
O=P1(N(CCCl)CCCl)NCCCO1 (centres undefined) [Cyclophosphamide]	> 4170 nM	> 4170 nM	0.0343	0
Nc1ccn([C@@H]2O[C@H](CO)[C@@H](O)[C@@H]2O)c(=O)n1 [Cytarabine]	591 nM	294 nM	5.84	6.18
CN(C)/N=N/c1[nH]cnc1C(N)=O [Dacarbazine]	1330 nM	96.4 nM	2.68	7.63
Cc1c2oc3c(C)ccc(C(=O)N[C@@H]4C(=O)N[C@H](C(C)C)C(=O)N5CCC[C@H]5C(=O)N(C)CC(=O)N(C)[C@@H](C(C)C)C(=O)O[C@@H]4C)c3nc-2c(C(=O)N[C@@H]2C(=O)N[C@H](C(C)C)C(=O)N3CCC[C@H]3C(=O)N(C)CC(=O)N(C)[C@@H](C(C)C)C(=O)O[C@@H]2C)c(N)c1=O [Dactinomycin]	4.19 nM	2.18 nM	36.8	38.3
Nc1ncn([C@H]2C[C@H](O)[C@@H](CO)O2)c(=O)n1 [Decitabine]	> 4170 nM	> 4170 nM		0
C[C@@H]1C[C@H]2[C@@H]3CCC4=CC(=O)C=C[C@]4(C)[C@@]3(F)[C@@H](O)C[C@]2(C)[C@@]1(O)C(=O)CO [Dexamethasone]	> 4170 nM	> 4170 nM	0	0
CC(=O)O[C@@]12CO[C@@H]1C[C@H](O)[C@@]1(C)C(=O)[C@H](O)C3=C(C)[C@@H](OC(=O)[C@H](O)[C@@H](NC(=O)OC(C)(C)C)c4ccccc4)C[C@@](O)([C@@H](OC(=O)c4ccccc4)[C@H]21)C3(C)C [Docetaxel]	2.71 nM	1.57 nM and 1.83 nM	32.7 and 31.2	33.3 and 33.8
Nc1ccccc1NC(=O)c1ccc(CNC(=O)OCc2cccnc2)cc1 [Entinostat]	> 4170 nM	> 4170 nM	0	2.12
Cn1cc(C2=C(c3cn(C4CCN(Cc5ccccn5)CC4)c4ccccc34)C(=O)NC2=O)c2ccccc21 [Enzastaurin]	> 4170 nM	> 4170 nM	0	0

Continued, in another order:

IC50 of cell viability (MDA-MB-231 [2]; siRNA: siBRCA1)	IC50 of cell viability (MDA-MB-231 [2]; [3])	Structure (SMILES)	drug sensitivity score (MDA-MB-231 [1]; siRNA: siBRCA1)	drug sensitivity score (MDA-MB-231 [1]; [3])
> 4170 nM	1090 nM	CC[C@H](Nc1ncnc2[nH]cnc12)c1nc2cccc(F)c2c(=O)n1-c1ccccc1 [CAL-101]	0	2.02
2510 nM	1690 nM	C=CC(=O)Nc1cc2c(Nc3ccc(F)c(Cl)c3)ncnc2cc1OCCCN1CCOCC1 [Canertinib]	5.78	7.67
> 4170 nM	> 4170 nM	COc1cc2c(Oc3ccc4[nH]c(C)cc4c3F)ncnc2cc1OCCCN1CCCC1 [Cediranib]	0.0221	0
1350 nM	> 4170 nM	Cc1ccc(-c2cc(C(F)(F)F)nn2-c2ccc(S(N)(=O)=O)cc2)cc1 [Celecoxib]	3.29	0
2880 nM	91.8 nM	Nc1nc(Cl)nc2c1ncn2[C@H]1C[C@H](O)[C@@H](CO)O1 [Cladribine]	5.2	9.09
82.1 nM	28.1 nM	Nc1nc(Cl)nc2c1ncn2[C@@H]1O[C@H](CO)[C@@H](O)[C@@H]1F [Clofarabine]	8.22	12.5
> 4170 nM	4070 nM	C[C@@H](Oc1cc(-c2cnn(C3CCNCC3)c2)cnc1N)c1c(Cl)ccc(F)c1Cl [Crizotinib]	0.595	4.02
1910 nM	1160 nM	CO[C@@H](C(=O)N1Cc2[nH]nc(NC(=O)c3ccc(N4CCN(C)CC4)cc3)c2C1)c1ccccc1 [Danusertib]	6.5	10.1
11 nM	11.3 nM	Cc1nc(Nc2ncc(C(=O)Nc3c(C)cccc3Cl)s2)cc(N2CCN(CCO)CC2)n1 [Dasatinib]	27	27
159 nM	52.2 nM	COc1cccc2c1C(=O)c1c(O)c3c(c(O)c1C2=O)C[C@@](O)(C(C)=O)C[C@@H]3O[C@H]1C[C@H](N)[C@H](O)[C@H](C)O1 [Daunorubicin]	19.8	24.9
> 4170 nM	> 4170 nM	Cc1ccc(-n2nc(C(C)(C)C)cc2NC(=O)Nc2ccc(OCCN3CCOCC3)c3ccccc23)cc1 [Doramapimod]	0	0
> 4170 nM	> 4170 nM	CN1CCN(c2ccc3nc(-c4c(N)c5c(F)cccc5[nH]c4=O)[nH]c3c2)CC1 [Dovitinib]	0	0
205 nM	148 nM	COc1cccc2c1C(=O)c1c(O)c3c(c(O)c1C2=O)C[C@@](O)(C(=O)CO)C[C@@H]3O[C@H]1C[C@H](N)[C@H](O)[C@H](C)O1 [Doxorubicin]	17.9	19.6
